Assay results published in patent US9187471B2, “Pyrido [4,3-b] indole and pyrido [3,4-b] indole derivatives and methods of use” (Medivation Technologies, Inc., priority 2010, dated 2015).

How the values were obtained:
[1] = biological target: T1, human recombinant histamine H1 receptor (Homo sapiens, UniProt P35367); assay: Histamine H1 radioligand binding ([3H]Pyrilamine); settings: read-out: Histamine H1 Binding (1 μM), percent inhibition of specific binding; compound at 1 μM; 1.2 nM [3H]Pyrilamine
T1 construct: expressed in transfected cells; host or cells: CHO-K1
Experimental: To evaluate in radioligand binding assays the activity of compounds of the invention, human recombinant histamine H1 receptor expressed in Chinese hamster ovary (CHO) K1 cells (De Backer, M. et al, Biochem. Biophys. Res. Comm. 197(3):1601, 1993) in a modified Tris-HCl buffer (50 mM Tris-HCl, pH 7.4, 2 mM MgCl2, 100 mM NaCl, 250 mM Sucrose) was used. […] Non-specific binding was estimated in the presence of 1 μM Pyrilamine. Receptor proteins were filtered and washed, the filters were then counted to determine [^3H]Pyrilamine specifically bound. […] Biochemical assay results are presented as the percent inhibition of specific binding in Table 2.

[2] = biological target: T2, human recombinant dopamine D2L receptor (Homo sapiens, UniProt P14416); assay: Dopamine D2L radioligand binding ([3H]Spiperone); settings: read-out: Dopamine D2L (1 μM), percent inhibition of specific binding; compound at 1 μM; 0.16 nM [3H]Spiperone
T2 construct: expressed in transfected cells; host or cells: CHO
Experimental: Non-specific binding was estimated in the presence of 10 μM Haloperidol. Receptor proteins were filtered and washed, the filters were then counted to determine [^3H]Spiperone specifically bound.

[3] = biological target: T3, human recombinant serotonin (5-Hydroxytryptamine) 5-HT2A receptor (Homo sapiens, UniProt P28223); assay: Serotonin 5-HT2A radioligand binding ([3H]Ketanserin); settings: compound at 0.1 μM; read-out: Inhibition of ligand binding, Serotonin 5-HT2A (percent inhibition of specific binding)
T3 construct: expressed in transfected cells; host or cells: CHO-K1
Experimental: Compounds of the invention were incubated with 0.5 nM [^3H]Ketanserin for 60 min at 25° C. Non-specific binding was estimated in the presence of 1 μM Mianserin. Receptor proteins were filtered and washed, the filters were then counted to determine [^3H]Ketanserin specifically bound.

[4] = biological target: T4, human recombinant serotonin (5-Hydroxytryptamine) 5-HT6 receptor (Homo sapiens, UniProt P50406); assay: Serotonin 5-HT6 radioligand binding ([3H]LSD); settings: compound at 0.1 μM; read-out: Inhibition of ligand binding, Serotonin 5-HT6 (percent inhibition of specific binding)
T4 construct: expressed in transfected cells; host or cells: HeLa
Description: Receptor proteins were filtered and washed, the filters were then counted to determine [3H]LSD specifically bound.

[5] = biological target: T5, human recombinant serotonin (5-Hydroxytryptamine) 5-HT7 receptor (Homo sapiens, UniProt P34969); assay: Serotonin 5-HT7 radioligand binding ([3H]LSD); settings: compound at 0.1 μM; read-out: Inhibition of ligand binding, Serotonin 5-HT7 (percent inhibition of specific binding)
T5 construct: expressed in transfected cells; host or cells: CHO
Experimental: Lysergic acid diethylamide (LSD) for 120 min. at 25° C. […] Receptor proteins were filtered and washed, the filters were then counted to determine [^3H]LSD specifically bound.

[6] = biological target: T6, human recombinant serotonin (5-Hydroxytryptamine) 5-HT2C receptor (Homo sapiens, UniProt P28335); assay: Serotonin 5-HT2C radioligand binding ([3H]Mesulergine); settings: compound at 0.1 μM; read-out: Inhibition of ligand binding, Serotonin 5-HT2C (percent inhibition of specific binding)
T6 construct: expressed in transfected cells; host or cells: CHO-K1
T6 sequence (P28335 33-458): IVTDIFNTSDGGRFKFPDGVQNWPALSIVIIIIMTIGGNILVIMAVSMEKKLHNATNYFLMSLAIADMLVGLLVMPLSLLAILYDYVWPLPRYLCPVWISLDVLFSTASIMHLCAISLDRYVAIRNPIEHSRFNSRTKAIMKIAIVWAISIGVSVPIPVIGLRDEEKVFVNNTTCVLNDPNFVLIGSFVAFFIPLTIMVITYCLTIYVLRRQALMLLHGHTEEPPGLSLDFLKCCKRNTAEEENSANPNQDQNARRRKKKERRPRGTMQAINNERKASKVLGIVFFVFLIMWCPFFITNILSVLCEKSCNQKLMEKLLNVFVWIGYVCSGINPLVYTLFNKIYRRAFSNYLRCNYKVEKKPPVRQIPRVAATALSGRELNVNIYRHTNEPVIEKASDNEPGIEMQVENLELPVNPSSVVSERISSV
Experimental: Compounds of the invention were incubated with 1 nM [^3H]Mesulergine for 60 min at 25° C. Non-specific binding was estimated in the presence of 1 μM Mianserin. Receptor proteins were filtered and washed, the filters were then counted to determine [^3H]Mesulergine specifically bound.

T2 sequence (P14416 whole entry): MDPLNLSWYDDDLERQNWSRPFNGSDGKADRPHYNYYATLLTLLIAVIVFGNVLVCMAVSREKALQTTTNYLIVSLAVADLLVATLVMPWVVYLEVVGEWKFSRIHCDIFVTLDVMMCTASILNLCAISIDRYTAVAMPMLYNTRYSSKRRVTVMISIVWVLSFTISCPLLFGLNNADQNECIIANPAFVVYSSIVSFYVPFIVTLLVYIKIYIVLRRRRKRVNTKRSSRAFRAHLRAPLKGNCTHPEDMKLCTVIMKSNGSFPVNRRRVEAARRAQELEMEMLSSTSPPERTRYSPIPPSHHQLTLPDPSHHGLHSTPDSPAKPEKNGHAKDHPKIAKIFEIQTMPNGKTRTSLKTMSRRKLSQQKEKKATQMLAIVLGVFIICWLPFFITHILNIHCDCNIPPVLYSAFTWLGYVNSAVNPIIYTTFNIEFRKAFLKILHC
T1 sequence (P35367 whole entry): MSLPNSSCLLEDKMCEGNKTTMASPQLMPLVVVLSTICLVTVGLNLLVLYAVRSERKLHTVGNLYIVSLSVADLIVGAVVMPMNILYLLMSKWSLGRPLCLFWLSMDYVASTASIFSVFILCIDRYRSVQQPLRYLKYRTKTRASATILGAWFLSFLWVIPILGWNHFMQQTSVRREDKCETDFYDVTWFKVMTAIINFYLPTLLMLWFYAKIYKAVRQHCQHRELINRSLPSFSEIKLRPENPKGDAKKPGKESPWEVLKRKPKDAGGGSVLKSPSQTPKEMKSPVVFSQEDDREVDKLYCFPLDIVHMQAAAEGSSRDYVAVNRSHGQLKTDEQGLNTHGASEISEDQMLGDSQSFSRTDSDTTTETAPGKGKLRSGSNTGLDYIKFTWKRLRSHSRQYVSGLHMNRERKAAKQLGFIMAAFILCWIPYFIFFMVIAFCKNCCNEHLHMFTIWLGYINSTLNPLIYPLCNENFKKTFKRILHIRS
T5 sequence (P34969 whole entry): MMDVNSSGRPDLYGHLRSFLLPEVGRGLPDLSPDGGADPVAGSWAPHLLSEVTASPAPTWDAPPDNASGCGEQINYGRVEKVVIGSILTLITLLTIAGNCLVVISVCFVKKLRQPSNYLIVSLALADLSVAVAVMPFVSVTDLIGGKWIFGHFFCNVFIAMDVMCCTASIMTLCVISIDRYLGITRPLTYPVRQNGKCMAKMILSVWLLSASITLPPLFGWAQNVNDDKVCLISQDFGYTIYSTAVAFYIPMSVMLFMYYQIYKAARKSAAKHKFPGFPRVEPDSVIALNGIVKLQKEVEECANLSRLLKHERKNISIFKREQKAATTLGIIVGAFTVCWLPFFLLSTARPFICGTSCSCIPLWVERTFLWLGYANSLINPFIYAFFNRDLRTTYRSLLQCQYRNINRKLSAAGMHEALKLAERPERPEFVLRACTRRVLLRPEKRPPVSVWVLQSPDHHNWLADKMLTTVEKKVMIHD
T4 sequence (P50406 whole entry): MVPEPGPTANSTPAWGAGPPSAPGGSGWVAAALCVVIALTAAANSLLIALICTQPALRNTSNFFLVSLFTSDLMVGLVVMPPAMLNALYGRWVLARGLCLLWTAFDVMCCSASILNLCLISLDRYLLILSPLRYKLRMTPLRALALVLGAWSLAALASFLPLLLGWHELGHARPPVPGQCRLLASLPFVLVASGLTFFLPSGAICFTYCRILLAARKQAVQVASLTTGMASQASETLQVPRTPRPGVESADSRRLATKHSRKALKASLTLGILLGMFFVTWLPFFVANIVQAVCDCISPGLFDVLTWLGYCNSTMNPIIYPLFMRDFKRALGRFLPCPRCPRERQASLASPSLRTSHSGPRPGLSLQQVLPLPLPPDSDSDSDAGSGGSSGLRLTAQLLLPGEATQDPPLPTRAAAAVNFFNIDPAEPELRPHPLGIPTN
T3 sequence (P28223 whole entry): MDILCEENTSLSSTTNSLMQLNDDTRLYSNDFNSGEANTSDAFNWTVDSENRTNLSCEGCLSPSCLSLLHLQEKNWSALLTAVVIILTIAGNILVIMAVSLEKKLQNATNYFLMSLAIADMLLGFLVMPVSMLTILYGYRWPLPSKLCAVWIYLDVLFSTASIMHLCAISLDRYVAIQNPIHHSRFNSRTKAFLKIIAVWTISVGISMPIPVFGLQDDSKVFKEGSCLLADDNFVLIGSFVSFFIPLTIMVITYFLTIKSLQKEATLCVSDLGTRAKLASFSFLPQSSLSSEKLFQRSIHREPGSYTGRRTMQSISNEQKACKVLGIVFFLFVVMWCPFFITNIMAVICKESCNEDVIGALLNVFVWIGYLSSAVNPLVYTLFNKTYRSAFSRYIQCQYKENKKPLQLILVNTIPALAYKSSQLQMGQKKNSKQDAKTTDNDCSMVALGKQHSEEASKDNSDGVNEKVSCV

SMILES | inhibition at 1 µM [1] [%] | inhibition at 1 µM [2] [%] | inhibition at 0.1 µM [3] [%] | inhibition at 0.1 µM [4] [%] | inhibition at 0.1 µM [5] [%] | inhibition at 0.1 µM [6] [%]
Cc1ccc2c(c1)c1c(n2-c2cccc(N(C)C)c2)CCN(C)C1 [Compound 7, [3-(2,8-dimethyl-1,2,3,4-tetrahydro-pyrido[4,3-b]indol-5-yl)-phenyl]-dimethyl-amine] | 43 | 31 | 52 | 4 | 19 | 42
Cc1ccc2c(c1)c1c(n2-c2cscc2-c2ccc(F)cc2)CCN(C)C1 [Compound 23] | 72 | 44 | 83 | 45 | 98 | 90
Cc1ccc2c(c1)c1c(n2-c2cscn2)CCN(C)C1 [Compound 19, 2,8-dimethyl-5-thiazol-4-yl-2,3,4,5-tetrahydro-1H-pyrido[4,3-b]indole] | 59 | 14 | 64 | 15 | 51 | 71
Cc1ccc2c(c1)c1c(n2-c2ccc(C)nc2)CCN(C)C1 [Compound 3, 2,8-dimethyl-5-(6-methyl-pyridin-3-yl)-2,3,4,5-tetrahydro-1H-pyrido[4,3-b]indole] | 10 | 16 | 36 | 20 | 8 | 26
Cc1ccc2c(c1)c1c(n2-c2cncn2C)CCN(C)C1 [Compound 18, 2,8-dimethyl-5-(3-methyl-3H-imidazol-4-yl)-2,3,4,5-tetrahydro-1H-pyrido[4,3-b]indole] | 79 | 13 | 14 | 2 | 22 | 8
Cc1ccc2c(c1)c1c(n2-c2ccccc2)CCN(C)C1 [Compound 1, 2,8-dimethyl-5-phenyl-2,3,4,5-tetrahydro-1H-pyrido[4,3-b]indole] | 70 | 67 | 100 | 63 | 21 | 88
Cc1ccc2c(c1)c1c(n2-c2cscc2-c2ccccc2)CCN(C)C1 [Compound 21, 2,8-dimethyl-5-(4-phenyl-thiophen-3-yl)-2,3,4,5-tetrahydro-1H-pyrido[4,3-b]indole] | 86 | 54 | 90 | 62 | 99 | 96
Cc1ccc2c(c1)c1c(n2-c2cscc2-c2ccncc2)CCN(C)C1 [Compound 20, 2,8-dimethyl-5-(4-pyridin-4-yl-thiophen-3-yl)-2,3,4,5-tetrahydro-1H-pyrido[4,3-b]indole] | 42 | 9 | 78 | 18 | 97 | 85
COc1ccc(-n2c3c(c4cc(C)ccc42)CN(C)CC3)cn1 [Compound 17, 5-(6-Methoxy-pyridin-3-yl)-2,8-dimethyl-2,3,4,5-tetrahydro-1H-pyrido[4,3-b]indole] | 23 | 10 | 62 | 17 | 1 | 44
Cc1ccc2c(c1)c1c(n2-c2ccc(C(F)(F)F)nc2)CCN(C)C1 [Compound 4, 2,8-dimethyl-5-(6-trifluoromethyl-pyridin-3-yl)-2,3,4,5-tetrahydro-1H-pyrido[4,3-b]indole] | -1 | 0 | 67 | 14 | 1 | 73
CN1CCc2c(c3cc(Cl)ccc3n2-c2ccsc2)C1 [Compound 29, 8-chloro-2-methyl-5-thiophen-3-yl-2,3,4,5-tetrahydro-1H-pyrido[4,3-b]indole] | 90 | 63 | 101 | 101 | 63 | 98
Cc1ccc2c(c1)c1c(n2-c2cscc2-c2cccnc2)CCN(C)C1 [Compound 22, 2,8-dimethyl-5-(4-pyridin-3-yl-thiophen-3-yl)-2,3,4,5-tetrahydro-1H-pyrido[4,3-b]indole] | 85 | 39 | 75 | 14 | 91 | 80
Cc1ccc2c(c1)c1c(n2-c2ccccc2-c2ccccc2)CCN(C)C1 [Compound 8, 5-biphenyl-2-yl-2,8-dimethyl-2,3,4,5-tetrahydro-1H-pyrido[4,3-b]indole] | 92 | 30 | 99 | 52 | 65 | 97
CN1CCc2c(c3cc(Cl)ccc3n2-c2cscc2-c2ccncc2)C1 [Compound 28] | 46 | 20 | 68 | 45 | 95 | 76
CN1CCc2c(c3cc(Cl)ccc3n2-c2cscc2-c2cccnc2)C1 [Compound 27] | 76 | 26 | 67 | 30 | 94 | 72
CN1CCc2c(c3cc(Cl)ccc3n2-c2cscc2-c2ccccc2)C1 [Compound 26] | 91 | 47 | 86 | 61 | 95 | 96
Cc1ccc2c(c1)c1c(n2-c2ccccc2N(C)C)CCN(C)C1 [Compound 6, [2-(2,8-dimethyl-1,2,3,4-tetrahydro-pyrido[4,3-b]indol-5-yl)-phenyl]-dimethyl-amine] | 99 | 58 | 91 | 28 | 49 | 90
